This passage reports GI50 and TGI results from PubChem BioAssay (NCI).

Some test systems named below: K-562 leukemia; T-47D breast; SK-MEL-5 melanoma; PC-3 prostate; NCI/ADR-RES ovarian; RXF 393 renal; KM12 colon; UACC-257 melanoma; MOLT-4 leukemia; HL-60(TB) leukemia.
Common to all, as to experiment: NCI tumour cell line growth inhibition, 48 h

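Values below derive from 48-hour exposures of cells grown in 96-well plates, with endpoints linearly interpolated between the two concentrations bracketing the appropriate inhibition level. GI50 = concentration required for 50% inhibition of growth. The concentration for full growth arrest is given as TGI.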 A value given as a limit tells only on which side of the number the result lay.

Consider `C=C(C)[C@@H]1CC[C@]2(C(=O)O)CC[C@]3(C)[C@H](CC[C@@H]4[C@@]5(C)C/C(=C/c6ccc(OC)cc6)C(=O)C(C)(C)[C@@H]5CC[C@]43C)[C@@H]12`, for which the GI50 in the experiment on K-562 leukemia is 2210 nM; with T-47D breast it was 2840 nM; in the experiment with SK-MEL-5 melanoma, 2030 nM; in the experiment on PC-3 prostate it was 1740 nM; in the experiment with NCI/ADR-RES ovarian, 2.84 µM; in the experiment on RXF 393 renal, 2100 nM. Also, the results for the GI50 in the experiment on KM12 colon, in the experiment on UACC-257 melanoma and in the experiment with MOLT-4 leukemia were 1710 nM, 2100 nM and 2970 nM, respectively. For the same compound, the TGI with K-562 leukemia is above 100 µM; with T-47D breast, 26.7 µM; with SK-MEL-5 melanoma, 4.12 µM; in the experiment with PC-3 prostate, 8.24 µM; with NCI/ADR-RES ovarian, 13.3 µM; in the experiment on RXF 393 renal it was 5.26 µM. Also, the TGI with KM12 colon was 4.12 µM; with UACC-257 melanoma, 6.93 µM; in the experiment with MOLT-4 leukemia, above 100 µM.

For `CS(=O)(=O)c1ccc(Oc2cc(F)cc(C#N)c2)c2c1[C@H](O)C(F)(F)C2`, the GI50 with K-562 leukemia is above 100000 nM; in the experiment with T-47D breast, above 100000 nM; in the experiment with HL-60(TB) leukemia, above 100000 nM; with SK-MEL-5 melanoma, above 100000 nM; with PC-3 prostate, above 100000 nM; with NCI/ADR-RES ovarian, above 100 µM. The GI50 in the experiment with RXF 393 renal, with KM12 colon and in the experiment on MOLT-4 leukemia was above 100000 nM in each case. The TGI with K-562 leukemia, in the experiment on T-47D breast, in the experiment with HL-60(TB) leukemia, with SK-MEL-5 melanoma, in the experiment on PC-3 prostate and in the experiment with NCI/ADR-RES ovarian was above 100 µM in each case. For the same compound, the TGI with RXF 393 renal, in the experiment on KM12 colon and with MOLT-4 leukemia was above 100 µM in each case.

Take `O=C(Nc1ccc(OCc2nnc(-c3ccccc3)o2)c(F)c1)Nc1ccc(Cl)c(C(F)(F)F)c1`: the GI50 with K-562 leukemia is 2070 nM; in the experiment with T-47D breast, 2310 nM; in the experiment with HL-60(TB) leukemia it was 1990 nM; with SK-MEL-5 melanoma, 1740 nM; in the experiment with PC-3 prostate, 1300 nM; in the experiment with NCI/ADR-RES ovarian, 2.27 µM. For the same compound, the GI50 in the experiment on RXF 393 renal was 2620 nM; in the experiment with KM12 colon it was 1470 nM; in the experiment with MOLT-4 leukemia it was 1610 nM. For the same compound, the TGI in the experiment on K-562 leukemia came to 8.79 µM; in the experiment on T-47D breast, 7.15 µM; in the experiment with HL-60(TB) leukemia, 4.61 µM; in the experiment on SK-MEL-5 melanoma it was 3.59 µM; in the experiment with PC-3 prostate it was 4.85 µM; in the experiment with NCI/ADR-RES ovarian, 7.65 µM. The TGI was 8.98 µM in the experiment on RXF 393 renal, 5.09 µM in the experiment on KM12 colon and 7.13 µM in the experiment with MOLT-4 leukemia.

In the case of `COc1ccc(-c2nc(N3CCOCC3)c3sc(CN(C)c4ncc(C(=O)NO)cn4)cc3n2)cn1`, the GI50 in the experiment on K-562 leukemia is below 10 nM; in the experiment with T-47D breast, below 10 nM; with HL-60(TB) leukemia it was below 10 nM; with PC-3 prostate it was below 10 nM; with RXF 393 renal, below 12.2 nM; in the experiment with UACC-257 melanoma, below 10 nM. Further, the TGI with K-562 leukemia is above 100 µM; with T-47D breast, 0.0332 µM; in the experiment on HL-60(TB) leukemia it was 1.06 µM; with PC-3 prostate, 0.112 µM; with RXF 393 renal it was 0.0453 µM; in the experiment on UACC-257 melanoma, 0.0466 µM.

For `O=C(CN1C(=O)S/C(=C\C(Cl)=C\c2ccccc2)C1=O)NCCc1ccc(O)cc1`, the GI50 in the experiment with K-562 leukemia is 2280 nM; in the experiment with T-47D breast, 2470 nM; with SK-MEL-5 melanoma it was 1800 nM; in the experiment with PC-3 prostate, 1960 nM; in the experiment with NCI/ADR-RES ovarian, 2.44 µM; in the experiment on RXF 393 renal it was 1780 nM. Further, the GI50 in the experiment on KM12 colon is 1700 nM; in the experiment on UACC-257 melanoma, 2580 nM; in the experiment on MOLT-4 leukemia, 2380 nM. For the same compound, the TGI in the experiment with K-562 leukemia is above 100 µM; with T-47D breast it was 8.65 µM; in the experiment on SK-MEL-5 melanoma it was 3.4 µM; with PC-3 prostate, 5.12 µM; in the experiment with NCI/ADR-RES ovarian it was 8.81 µM; in the experiment with RXF 393 renal, 3.5 µM. Further, the TGI in the experiment with KM12 colon is 3.43 µM; in the experiment with UACC-257 melanoma, 14.5 µM; with MOLT-4 leukemia, above 100 µM.

In the case of `COc1cccc(Cn2c(-c3nonc3NC(C)=O)nc3ccccc32)c1`, the GI50 is 4020 nM in the experiment with K-562 leukemia; 6170 nM in the experiment on T-47D breast; 3760 nM with SK-MEL-5 melanoma; 2830 nM in the experiment with PC-3 prostate; 3.24 µM in the experiment with NCI/ADR-RES ovarian; 1920 nM with RXF 393 renal. Moreover, the results for the GI50 in the experiment with KM12 colon, in the experiment with UACC-257 melanoma and in the experiment on MOLT-4 leukemia were 4000 nM, 5710 nM and 5630 nM, respectively. The TGI in the experiment on K-562 leukemia is above 100 µM; in the experiment on T-47D breast it was above 100 µM; in the experiment on SK-MEL-5 melanoma, above 100 µM; in the experiment with PC-3 prostate, above 100 µM; in the experiment on NCI/ADR-RES ovarian, above 100 µM; with RXF 393 renal, 5.74 µM. The TGI was above 100 µM with KM12 colon, 88.4 µM in the experiment with UACC-257 melanoma and above 100 µM in the experiment with MOLT-4 leukemia.

`Cc1ccc(NC2=C(Cl)C(=O)N(Cc3ccccc3)C2=O)cc1Cl`: the GI50 was 3690 nM in the experiment with K-562 leukemia; 4300 nM with T-47D breast; 5640 nM with SK-MEL-5 melanoma; 1990 nM in the experiment with PC-3 prostate; 6.11 µM with NCI/ADR-RES ovarian; 2330 nM in the experiment on RXF 393 renal. The GI50 with KM12 colon is 13700 nM; with MOLT-4 leukemia, 1710 nM. The TGI stood at 25.8 µM in the experiment on K-562 leukemia; 25.3 µM in the experiment with T-47D breast; 19.1 µM in the experiment on SK-MEL-5 melanoma; 8.84 µM in the experiment with PC-3 prostate; 20.6 µM with NCI/ADR-RES ovarian; 10.6 µM with RXF 393 renal. In addition, the figures for the TGI in the experiment on KM12 colon and in the experiment on MOLT-4 leukemia were 26.6 µM and 6.81 µM, respectively.

For `CCN(CC)CCCC(Cc1ccccc1)Nc1c2ccc(Cl)cc2nc2ccc(OC)cc12` (centres undefined), the GI50 is 1070 nM with K-562 leukemia; 1970 nM in the experiment with T-47D breast; 2110 nM in the experiment on HL-60(TB) leukemia; 5220 nM in the experiment with PC-3 prostate; 3.02 µM in the experiment on NCI/ADR-RES ovarian; 1630 nM in the experiment on RXF 393 renal. The GI50 was 2790 nM in the experiment on KM12 colon, 1890 nM in the experiment on UACC-257 melanoma and 1910 nM in the experiment with MOLT-4 leukemia. Also, the TGI worked out at 2.89 µM in the experiment on K-562 leukemia; 4.16 µM in the experiment on T-47D breast; 4.45 µM in the experiment with HL-60(TB) leukemia; 19.1 µM in the experiment on PC-3 prostate; 10.4 µM in the experiment with NCI/ADR-RES ovarian; 3.35 µM in the experiment with RXF 393 renal. Moreover, the TGI in the experiment with KM12 colon is 10.3 µM; with UACC-257 melanoma, 3.44 µM; in the experiment on MOLT-4 leukemia, 5.7 µM.

For `CCCC(=O)Nc1ccc2c(c1)CN1C(=O)c3ccccc3C1=N2`, the TGI in the experiment on T-47D breast, in the experiment with HL-60(TB) leukemia, in the experiment on SK-MEL-5 melanoma, in the experiment with PC-3 prostate, with NCI/ADR-RES ovarian and with KM12 colon was above 100 µM throughout. For the same compound, the TGI in the experiment on UACC-257 melanoma and in the experiment with MOLT-4 leukemia was above 100 µM each time.
